# Laboratory results as given in US10231463B2, “Food mass suitable for microwaving” (Chemische Fabrik Budenheim KG, priority 2013, dated 2019).
# How the values were obtained:
# [1] = Pore volume by nitrogen gas adsorption (BJH method, BELSORP-mini II); format: physicochemical; conditions: total pore volume Vp, nitrogen adsorption at 77.3 K
# From the text: Determining the Pore Volume
# The pore volume in accordance with the present invention is characterised by means of gas adsorption. The recording of physisorption isotherms (adsorption and desorption isotherms) of inert gas molecules at low temperatures is routinely used for determining solids parameters.
# The BJH method provides an algorithm for the calculation of pore width distribution from nitrogen adsorption data on the assumption of a cylindrical pore geometry. In that respect consideration is given to the change in the adsorbed volume in the pores in dependence on the pore radius, wherein the pore radius distribution function is related as a relative value to the total pore volume. […] It is assumed that the entire pore system is filled with a capillary condensate.
# [2] = Thawing and baking trials with yeast-raised wheat frozen doughs in a microwave oven; conditions: yeast-raised wheat frozen dough; for ΔT (temperature difference between crust temperature and crumb temperature): 2 parts by weight additive, 600 watts, 120 seconds; for Microwave activity: assessment scale from ΔT
# Description: Dough Composition (Basic Recipe):
# In addition 2 parts by weight of microwave absorber were added to the basic recipe.
# • Mixing and kneading time: 3+2 minutes (the latter in a Stephan mixer) • Dough standing time: 20 minutes • Dough piece weight: 200 g • Cooking time of the dough pieces: 20 minutes • Freezing time: about 4 hours • Deep freeze storage time: about 2 days Thawing and Baking Trials:
# The deep-frozen dough pieces were exposed to microwave radiation in a microwave oven from Panasonic (model: NN-GD560M—inverter microwave) for a predetermined period of 120 seconds and with a predetermined microwave power of 600 watts (according to the device indication). After 2 minutes of standing time the temperature of the crust and the crumb was measured by means of an infrared temperature sensor at various measurement points on the dough piece.
# Measurement value 1 (M1)=average crust temperature outside
# Measurement value 2 (M2)=average crumb temperature in the interior of the dough piece.
# [3] = Baking trials with ready-to-eat baking mixture (lemon cake) in a microwave oven; conditions: for ΔT (temperature difference between crust temperature and crumb temperature): 2 parts by weight additive, 600 watts, 140 seconds; for Microwave activity: assessment scale from ΔT
# Description: A ready-to-eat baking mixture for lemon cakes from […] was used as the basic recipe. […] Whole egg and sugar were put into a mixing container and mixed. The powder mixture of the composition (wheat flour, cooking salt and so forth) was slowly mixed in. Vegetable oil, flavouring substances and alcohol were then slowly added and mixing was effected for 12 minutes. After that baking raising agent was added and mixed at a medium stage for a further 2 minutes. After that the microwave absorber was mixed in, the mixer was switched off, and the material was tipped out and stored cool.
# [4] = Thawing and baking trials with puff pastry in a microwave oven; conditions: for ΔT (temperature difference between crust temperature and crumb temperature): 2 parts by weight additive, puff pastry dough pieces; for Microwave activity: assessment scale from ΔT, puff pastry doughs
# Description: A puff pastry from Veripan was used as the basic recipe.
# 2 parts by weight of microwave absorber were further added to the basic recipe.
# Wheat flour, inverted sugar, emulsifier and optionally microwave absorber were put into a mixing container and mixed. The water and 20% of the vegetable fat were added and kneaded for 3 minutes at a low stage and for 5 minutes at a medium stage with a spiral kneader. The dough temperature was monitored. The target temperature was 18° C. After that the remaining vegetable fat was beaten into the dough. The dough was then folded at intervals each of 30 minutes in 4 working steps, more specifically 2 single and 2 double turns. They give by calculation 144 fat layers (margarine), divided into very thin dough and fat layers. Before processing the dough was stored in a cooled condition for 12 hours.
# Unbaked puff pastry dough roundels without filling and pre-baked puff pastry dough pockets (hot pockets) with a tomato sauce filling were respectively subjected to microwave radiation as deep-frozen dough pieces in a microwave oven from Panasonic (see Example 2) for a predetermined period and with a predetermined microwave power. After a […] standing time the temperature of the dough piece was measured by means of a thermal imaging camera (Fluke Ti20) and evaluated.
# Measurement value 1 (M1)=averaged crust temperature outside
# Measurement value 2 (M2)=averaged crumb temperature in the interior of the dough piece.
# Puff pastry dough roundel (PPD-RO): 440 watts; 200 seconds
# Puff pastry dough hot pockets (PPD-HP): 600 watts; 300 seconds
# Table 3 hereinafter reproduces the additives used, the temperature measurement values M1 and M2 and the corresponding temperature difference (ΔT) between crust temperature and crumb temperature of the dough piece.
# Assessment of Microwave Activity in Puff Pastry Doughs 1: ΔT=>20° C.=very good 2: ΔT=15 to <20° C.=good 3: ΔT=<15° C.=no additional additive
# [5] = Solubility of the additive in water at 20° C.; format: physicochemical
Compound,Pore Volume [1],ΔT (temperature difference between crust temperature and crumb temperature) [2],Microwave activity [2],ΔT (temperature difference between crust temperature and crumb temperature) [3],Microwave activity [3],ΔT (temperature difference between crust temperature and crumb temperature) [4],Microwave activity [4],Solubility [5]
"O=P([O-])([O-])OP(=O)([O-])[O-].O=P([O-])([O-])OP(=O)([O-])[O-].O=P([O-])([O-])OP(=O)([O-])[O-].[Fe+3].[Fe+3].[Fe+3].[Fe+3] [FePP, Iron-III-pyrophosphate]",30 10^−3 cm^3/g,42.6 °C,1 (ΔT=>40° C.=very good),26.4 °C,1 (ΔT=>20° C.=very good),16.9 °C,2 (ΔT=15 to <20° C.=good),–
Magnesium metaphosphate [MMP],5.1 10^−3 cm^3/g,38.4 °C,2 (ΔT=25 to 40° C.=good),–,–,–,–,<0.1 mg/mL
Sodium aluminium phosphate 1:3:8 NaH14Al3(PO4)8 [SALP 1],13 10^−3 cm^3/g,29.6 °C,2 (ΔT=25 to 40° C.=good),–,–,–,–,15 mg/mL
"O=P(O)(O)OP(=O)(O)OP(=O)(O)O [STPP(V), Sodium tripolyphosphate, reference compound]",1.1 10^−3 cm^3/g,12.6 °C,3 (ΔT=<25° C.=no additional activity),–,–,–,–,145 mg/mL
"O=P([O-])([O-])OP(=O)([O-])OP(=O)([O-])[O-].[K+].[K+].[K+].[K+].[K+] [KTPP(V), Potassium tripolyphosphate, reference compound]",1.1 10^−3 cm^3/g,12.3 °C,3 (ΔT=<25° C.=no additional activity),–,–,–,–,>200 mg/mL
"O=P([O-])([O-])OP(=O)([O-])[O-].[Mg+2].[Mg+2] [MgPP, Magnesium pyrophosphate]",7.1 10^−3 cm^3/g,45.8 °C,1 (ΔT=>40° C.=very good),19.1 °C,2 (ΔT=15 to <20° C.=good),15.2 °C,2 (ΔT=15 to <20° C.=good),–
Sodium aluminium phosphate 3:2:8 Na3H15Al2*PO4)8 [SALP 2],6.4 10^−3 cm^3/g,20.5 °C,2 (ΔT=25 to 40° C.=good),–,–,–,–,15 mg/mL
"O=P([O-])([O-])[O-].[Fe+3] [FeOP, Iron-III-orthophosphate]",19 10^−3 cm^3/g,47.0 °C,1 (ΔT=>40° C.=very good),15.9 °C,2 (ΔT=15 to <20° C.=good),15.1 °C,2 (ΔT=15 to <20° C.=good),–
"O=C([O-])CC(O)(CC(=O)[O-])C(=O)[O-].O=C([O-])CC(O)(CC(=O)[O-])C(=O)[O-].[Ca+2].[Ca+2].[Ca+2] [TCC, Tricalcium citrate]",14.2 10^−3 cm^3/g,28.6 °C,2 (ΔT=25 to 40° C.=good),–,–,–,–,–
"[Mg+2].[OH-].[OH-] [Mg(OH)2, Magnesium hydroxide]",18.2 10^−3 cm^3/g,62.5 °C,1 (ΔT=>40° C.=very good),–,–,–,–,–
"O=P([O-])([O-])OP(=O)([O-])[O-].[Cu+2].[Cu+2] [CuPP, Copper-II pyrophosphate]",12 10^−3 cm^3/g,37.9 °C,2 (ΔT=25 to 40° C.=good),–,–,–,–,–
"O=P([O-])(O)OP(=O)([O-])O.[Ca+2] [CAPP, Acid calcium pyrophosphate]",3.6 10^−3 cm^3/g,50.0 °C,1 (ΔT=>40° C.=very good),21.2 °C,1 (ΔT=>20° C.=very good),26.1 °C,1 (ΔT=>20° C.=very good),–
